The target in the data set is ATP-binding cassette sub-family C member 2 (Rattus norvegicus, UniProt Q63120). Nature of the data set: TP_TRANSPORTER: Branched DNA assay in vivo SD rat, kidney. It counts as functional, organism-based, Sprague-Dawley.
Chain of ATP-binding cassette sub-family C member 2 (Q63120 whole entry): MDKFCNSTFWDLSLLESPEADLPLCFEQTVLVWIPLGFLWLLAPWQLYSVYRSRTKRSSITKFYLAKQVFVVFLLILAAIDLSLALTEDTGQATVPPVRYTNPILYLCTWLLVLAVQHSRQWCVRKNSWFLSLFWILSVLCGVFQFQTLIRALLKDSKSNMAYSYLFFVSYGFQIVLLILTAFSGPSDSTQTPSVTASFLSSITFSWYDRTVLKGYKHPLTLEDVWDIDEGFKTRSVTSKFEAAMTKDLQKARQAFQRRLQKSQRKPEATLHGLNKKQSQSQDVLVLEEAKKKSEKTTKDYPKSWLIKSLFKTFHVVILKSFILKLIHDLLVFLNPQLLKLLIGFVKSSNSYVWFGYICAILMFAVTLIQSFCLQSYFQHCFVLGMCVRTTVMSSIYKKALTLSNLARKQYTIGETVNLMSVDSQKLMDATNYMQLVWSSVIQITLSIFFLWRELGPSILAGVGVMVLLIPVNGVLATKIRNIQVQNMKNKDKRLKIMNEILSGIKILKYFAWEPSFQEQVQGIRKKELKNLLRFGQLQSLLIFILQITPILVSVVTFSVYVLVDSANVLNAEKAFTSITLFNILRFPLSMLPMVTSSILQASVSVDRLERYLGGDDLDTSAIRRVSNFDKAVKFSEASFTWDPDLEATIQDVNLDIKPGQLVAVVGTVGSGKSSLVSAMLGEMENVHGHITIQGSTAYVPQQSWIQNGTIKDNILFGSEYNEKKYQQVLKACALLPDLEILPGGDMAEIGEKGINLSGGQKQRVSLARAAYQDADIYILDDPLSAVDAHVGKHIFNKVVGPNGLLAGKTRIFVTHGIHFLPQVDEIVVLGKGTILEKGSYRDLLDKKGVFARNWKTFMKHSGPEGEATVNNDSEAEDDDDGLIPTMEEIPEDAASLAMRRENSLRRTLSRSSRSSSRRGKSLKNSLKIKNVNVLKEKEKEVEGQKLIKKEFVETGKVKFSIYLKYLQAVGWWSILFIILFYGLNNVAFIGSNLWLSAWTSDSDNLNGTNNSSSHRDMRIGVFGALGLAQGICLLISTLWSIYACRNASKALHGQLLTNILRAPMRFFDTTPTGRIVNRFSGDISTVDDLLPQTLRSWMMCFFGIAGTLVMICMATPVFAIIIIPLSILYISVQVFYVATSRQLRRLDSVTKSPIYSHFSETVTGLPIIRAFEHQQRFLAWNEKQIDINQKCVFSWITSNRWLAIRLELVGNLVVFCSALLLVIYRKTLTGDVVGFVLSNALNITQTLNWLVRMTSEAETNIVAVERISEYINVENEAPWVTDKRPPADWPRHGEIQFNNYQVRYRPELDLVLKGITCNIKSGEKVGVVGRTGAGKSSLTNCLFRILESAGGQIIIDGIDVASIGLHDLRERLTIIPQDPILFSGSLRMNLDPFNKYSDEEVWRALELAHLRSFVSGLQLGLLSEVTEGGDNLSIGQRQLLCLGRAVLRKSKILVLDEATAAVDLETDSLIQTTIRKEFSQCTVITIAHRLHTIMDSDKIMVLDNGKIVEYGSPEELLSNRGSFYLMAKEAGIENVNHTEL
`CCCC[C@@H](CC)COC(=O)c1ccccc1C(=O)OC[C@@H](CC)CCCC` [BIS(2-ETHYLHEXYL)PHTHALATE]: the Activity entry is “inducer [+]”.

On to `O=c1cc(-c2ccccc2)oc2ccc3ccccc3c12` [BETA-NAPHTHOFLAVONE], for which the Activity result is “inducer [+]”.

In the case of `CN(N=O)C(=O)N[C@@H](C=O)[C@@H](O)[C@H](O)[C@H](O)CO` [STREPTOZOCIN], the Activity result is “inducer [+]”.

For `OCc1c[nH]c2ccccc12` [INDOLE-3-CARBINOL], the Activity entry was “inducer [+]”.
